Laboratory results: patent publication US4826856A, “Calcium antagonistic dihydropyridine derivative” (Yason s.r.l., priority 1985, dated 1989)
pEC50: −log10 of the molar value. Where two headings read alike, the source gives them in different places. Each block holds one molecule with its values, some of them ahead of it.

What was measured:
Rat thoracic aorta = assay: Inhibition of the contractile response of rat thoracic aorta strips in vitro; details: for pEC50: Rattus norvegicus
Method: 1. Inhibition of the contractile response of arterial vessels in vitro
Aortic strips (3 mm wide) were dissected from rat thoracic aorta and bathed in a Krebs-Henseleit solution bubbled with O2 :CO2 (95:5) at 38° C., under a tension of 2 g. After a 30-minutes stabilization period, a contraction was induced by adding either KCl (118 mM) or noradrenaline (10^-5 M.l^-1) in a calcium-free medium (Na EDTA 0.1 mM.l^-1) or noradrenaline (10^-5 M.l^-1) after readmission of calcium (CaCl2 1.25 mM.l^-1).

post-oligoemic rats = assay: Transient cerebral oligoemia in the rat, cerebral water, K+ and Ca++ content; format: in vivo; details: for overall activity in cerebral oligoemia: p.o.
Method: Transient cerebral oligoemia in the rat
The method described by Borzeix in Circulation et Metabolisme du Cerveau 1, 63-79, John Libbey Eurotext Publ. […] The animals were treated by the oral route with the tested drugs twice a day, starting one hour after the ligation and for 3 days, in scalar doses.
The last dose, at the 71th hour after the occlusion, preceeded by one hour the sacrifice of the animal, whose brain was subjected to the determination of the H2 O, K^+ and Ca^++ content.

Sprague-Dawley rats [1] = assay: Ventricular arrhythmias during coronary artery ligation period; format: in vivo, rat; design: EBs, mean value of indices + SEM / VT, mean value of indices + SEM / VF, mean value of indices + SEM: scale not given here
Method: (§1) Ventricular arrhythmias after coronary artery ligation in the acute phase or during the period of re-circulation
(§2) Sprague-Dawley rats were subjected to ligation of the left coronary artery according to the method of Clark et al. in J. Pharmacol. Methods 3, 357-368, 1980. The drugs were administered by gastric tube 30 minutes before the ligation. By means of a continuous electrocardiographic recording, the ventricular arrhythmias such as ectopic beats (EB), ventricular tachycardia (VT), ventricular fibrillation (VF) for 30 minutes after ligation, were recorded.

SHR aorta = SHR aorta pretreatment study (PE or K+ contraction); design: species or system spontaneously hypertensive rat (SHR)
Method: 1.3. SHR aorta--Pretreatment study
SHR aorta were treated with either PE(1 μM) or high potassium (K^+, 80 mM) and the resulting contraction was allowed to sustain for 15 Minutes. After wash out and equilibration (1 hour), tissues were pretreated with a single concentration of either YS 201 or nifedipine. After a 30-minutes equilibration time, tissues were again challenged with either PE or K^+ and the resultant contraction compared to the initial contraction. Contractile effect was measured at 15 minutes after the addition of the agonist (PE or K^+).

[2] = Pharmacokinetics and bioavailability in dogs; format: in vivo; details: in vivo, 10 mg/kg, dog
Method: YS 201 hydrochloride was intravenously and orally administered to dogs at 1 and 10 mg/kg respectively.

Sprague-Dawley rats [3] = assay: Ventricular arrhythmias after re-circulation; format: in vivo, rat; details: 5 mg/kg p.o.
Method: as §1, §2

[4] = noradrenaline 10^-5 M.l^-1, calcium-free medium, read-out: EC50, NA - Ca++ contraction, rat aorta
[5] = noradrenaline 10^-5 M.l^-1 after readmission of calcium (CaCl2 1.25 mM.l^-1), read-out: EC50, NA + Ca++ contraction, rat aorta

- pEC50 (Rat thoracic aorta; [4]): 4.00
- pEC50 (Rat thoracic aorta; [5]): 4.00
SMILES: COCCOC(=O)C1=C(C)NC(C)=C(C(=O)OC(C)C)C1c1cccc([N+](=O)[O-])c1 (stereo not drawn) [nimodipine]
- Cerebral content of K+ (post-oligoemic rats; 0.5 mg/kg p.o.): 442.0 ± 22.40 mmol · kg^-1 dry weig
- Cerebral content of H2O (post-oligoemic rats; 1.5 mg/kg p.o.): 79.3 ± 0.40%
- overall activity in cerebral oligoemia (post-oligoemic rats): fail

SMILES: COc1ccc(CCN(C)CCCC(C#N)(c2ccc(OC)c(OC)c2)C(C)C)cc1OC (stereo not drawn) [verapamil]
- overall activity in cerebral oligoemia (post-oligoemic rats): good activity

SMILES: COC(=O)C1=C(C)NC(C)=C(C(=O)OC)C1c1ccccc1[N+](=O)[O-] [nifedipine]
- Death rate % (Sprague-Dawley rats [1]; 1.0 mg/kg p.o.): 0%
- EBs, mean value of indices + SEM (Sprague-Dawley rats [1]; 1.0 mg/kg p.o.): 70.0 ± 24.72
- VF % (Sprague-Dawley rats [1]; 1.0 mg/kg p.o.): 80%
- VF, mean value of indices + SEM (Sprague-Dawley rats [1]; 1.0 mg/kg p.o.): 1.1 ± 0.55
- VT, mean value of indices + SEM (Sprague-Dawley rats [1]; 1.0 mg/kg p.o.): 4.4 ± 2.22
- Death rate % (Sprague-Dawley rats [1]; 1.5 mg/kg p.o.): 20.0%
- EBs, mean value of indices + SEM (Sprague-Dawley rats [1]; 1.5 mg/kg p.o.): 40.5 ± 20.19
- VF % (Sprague-Dawley rats [1]; 1.5 mg/kg p.o.): 60%
- VF, mean value of indices + SEM (Sprague-Dawley rats [1]; 1.5 mg/kg p.o.): 1.7 ± 0.77
- VT, mean value of indices + SEM (Sprague-Dawley rats [1]; 1.5 mg/kg p.o.): 2.1 ± 1.75
- inhibition of K+-induced contractions, SHR aortic strips (SHR aorta): extremely potent inhibitors

SMILES: COC(=O)C1=C(C)NC(C)=C(C(=O)OCCN(C)Cc2ccccc2)C1c1cccc([N+](=O)[O-])c1 (stereo not drawn) [nicardipine]
- AUC ([2]; po, same dose, read-out: AUC (converted)): 1280 ng·h/mL
- Cmax ([2]; oral, read-out: maximum concentration (Cmax)): 220 ng/mL
- pEC50 (Rat thoracic aorta; [4]): 4.00
- Death rate % (Sprague-Dawley rats [1]; 0.5 mg/kg p.o.): 0%
- EBs, mean value of indices + SEM (Sprague-Dawley rats [1]; 0.5 mg/kg p.o.): 10.9
- VF % (Sprague-Dawley rats [1]; 0.5 mg/kg p.o.): 66.7%
- VF, mean value of indices + SEM (Sprague-Dawley rats [1]; 0.5 mg/kg p.o.): 2.5
- VT, mean value of indices + SEM (Sprague-Dawley rats [1]; 0.5 mg/kg p.o.): 2.5
- Death rate % (Sprague-Dawley rats [1]; 1.0 mg/kg p.o.): 33.3%
- EBs, mean value of indices + SEM (Sprague-Dawley rats [1]; 1.0 mg/kg p.o.): 22.0
- VF % (Sprague-Dawley rats [1]; 1.0 mg/kg p.o.): 100%
- VF, mean value of indices + SEM (Sprague-Dawley rats [1]; 1.0 mg/kg p.o.): 0.9
- VT, mean value of indices + SEM (Sprague-Dawley rats [1]; 1.0 mg/kg p.o.): 0.5
- Death rate % (Sprague-Dawley rats [1]; 2.0 mg/kg p.o.): 25.0%
- EBs, mean value of indices + SEM (Sprague-Dawley rats [1]; 2.0 mg/kg p.o.): 31.9
- VF % (Sprague-Dawley rats [1]; 2.0 mg/kg p.o.): 75%
- VF, mean value of indices + SEM (Sprague-Dawley rats [1]; 2.0 mg/kg p.o.): 1.2
- VT, mean value of indices + SEM (Sprague-Dawley rats [1]; 2.0 mg/kg p.o.): 0.7
- Cerebral content of Ca++ (post-oligoemic rats; 1 mg/kg p.o.): 18.4 ± 7.04 mmol · kg^-1 dry weig
- Cerebral content of K+ (post-oligoemic rats; 1 mg/kg p.o.): 460.0 ± 18.96 mmol · kg^-1 dry weig
- Cerebral content of Ca++ (post-oligoemic rats; 3 mg/kg p.o.): 19.4 ± 5.0 mmol · kg^-1 dry weig
- Cerebral content of H2O (post-oligoemic rats; 3 mg/kg p.o.): 79.2 ± 0.42%
- overall activity in cerebral oligoemia (post-oligoemic rats): fail

- pEC50 (Rat thoracic aorta; [5]): 4.00
SMILES: CCOC(=O)C1=C(C)NC(C)=C(C(=O)OC)C1c1cccc([N+](=O)[O-])c1 (stereo not drawn) [nitrendipine]
- activity on contractions induced by noradrenaline in Ca++-free medium vs YS 201 (Rat thoracic aorta; rat aorta): slightly more active than YS 201

SMILES: COc1ccc([C@@H]2Sc3ccccc3N(CCN(C)C)C(=O)[C@@H]2OC(C)=O)cc1 [diltiazem, reference compound]
- Death rate % (Sprague-Dawley rats [3]): 27.3%
- EBs, mean value of indices + SEM (Sprague-Dawley rats [3]): 68.9 ± 32.12
- VF % (Sprague-Dawley rats [3]): 45.5%
- VF, mean value of indices + SEM (Sprague-Dawley rats [3]): 8.8 ± 4.64
- VT, mean value of indices + SEM (Sprague-Dawley rats [3]): 4.2 ± 2.54
- overall activity in cerebral oligoemia (post-oligoemic rats): good activity
